The compounds below were run against hMAT2A (Homo sapiens (Human), UniProt P31153) (assay: Phosphate Sensor Fluorescence Assay (MAT2A enzyme inhibition)). Details: L-methionine 500 uM, ATP 500 uM, class symbols.
Chain of hMAT2A (P31153 whole entry): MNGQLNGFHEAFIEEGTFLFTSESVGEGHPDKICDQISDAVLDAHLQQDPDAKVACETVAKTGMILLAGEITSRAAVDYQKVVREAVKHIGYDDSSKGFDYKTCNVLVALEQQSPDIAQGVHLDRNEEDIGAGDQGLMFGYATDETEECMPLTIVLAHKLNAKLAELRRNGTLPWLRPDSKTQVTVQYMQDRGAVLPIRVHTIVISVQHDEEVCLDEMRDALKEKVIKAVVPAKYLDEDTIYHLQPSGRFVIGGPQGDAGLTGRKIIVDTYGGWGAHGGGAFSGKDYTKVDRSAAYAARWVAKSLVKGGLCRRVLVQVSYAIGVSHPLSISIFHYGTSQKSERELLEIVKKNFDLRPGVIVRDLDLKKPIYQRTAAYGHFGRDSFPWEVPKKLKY
Format: biochemical
In short: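 Recombinant MAT2A preincubated 15 min at room temperature with compound, then reacted 1 h at room temperature with 500 uM L-methionine and 500 uM ATP in Tris pH 7.5 buffer containing PNP/7-MEG.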
With `CNc1nc(=O)n(-c2cccc(Br)c2)c2cc(Cl)ccc12` [Example 401, 1-(3-bromophenyl)-7-chloro-4-(methylamino)hydroquinazolin-2-one] the IC50 was 0.2 to 0.5 µM. Work on `CS(=O)(=O)Nc1nc(=O)n(-c2ccccc2)c2cc(Cl)ccc12` [Example 200, N-(7-chloro-2-oxo-1-phenyl-1,2-dihydroquinazolin-4-yl)methane-sulfonamide] yielded an IC50 of 1 to 10 µM. For `CNc1nc(=O)n(-c2cccc(OC)n2)c2nc(C(F)(F)F)ccc12` [Example 91, 1-(6-methoxypyridin-2-yl)-4-(methylamino)-7-(trifluoromethyl)-pyrido[2,3-d]pyrimidin-2(1H)-one], the IC50 was less than 0.2 µM. Compound `CNc1nc(=O)n(-c2cccc(C(N)=O)c2)c2cc(Cl)ccc12` [Example 134, 3-[7-chloro-4-(methylamino)-2-oxo-hydroquinazolin-1-yl]benzamide] has an IC50 of less than 0.2 µM. In the case of `Cc1ccncc1-n1c(=O)[nH]c(=O)c2ccc(C(F)(F)F)nc21` [Example 365, 1-(4-methylpyridin-3-yl)-7-(trifluoro-methyl)pyrido[2,3-d]pyrimidine-2,4(1H,3H)-dione], the IC50 is reported as less than 0.2 µM. `Cc1ccc2c(NCC(F)(F)F)nc(=O)n(-c3ccccc3)c2n1` [Example 397, 7-methyl-1-phenyl-4-[(2,2,2-trifluoro-ethyl)amino]pyrido[2,3-d]pyrimidin-2(1H)-one] showed an IC50 of less than 0.2 µM. Work on `CNc1nc(=O)n(-c2ccccc2)c2cc(Cl)c(C#N)cc12` [Example 190, 7-chloro-4-(methylamino)-2-oxo-1-phenylhydroquinazoline-6-carbonitrile] yielded an IC50 of 1 to 10 µM. Work on `CN(C)C(=O)CNc1nc(=O)n(-c2ccccc2)c2cc(Cl)ccc12` [Example 231, 2-[(7-chloro-2-oxo-1-phenyl-1,2-dihydroquinazolin-4-yl)amino]-N,N-dimethylacetamide] yielded an IC50 of 1 to 10 µM. Compound `COCCCNc1nc(=O)n(-c2ccccc2Cl)c2nc(C(F)(F)F)ccc12` [Example 248, 1-(2-chlorophenyl)-4-[(3-methoxy-propyl)amino]-7-(trifluoromethyl)-pyrido[2,3-d]pyrimidin-2(1H)-one] has an IC50 of less than 0.2 µM. `O=c1[nH]c(=O)n(-c2ccccc2Cl)c2cc(C(F)(F)F)ccc12` [Example 103, 1-(2-chlorophenyl)-7-(trifluoromethyl)-1,3-dihydroquinazoline-2,4-dione] showed an IC50 of less than 0.2 µM. Compound `NC(=O)[C@H]1CCCN1c1nc(=O)n(-c2ccccc2)c2cc(Cl)ccc12` [Example 241, (2R)-1-(7-chloro-2-oxo-1-phenylhydro-quinazolin-4-yl)pyrrolidine-2-carboxamide] has an IC50 of 1 to 10 µM. Compound `O=c1nc(N2CC(O)C2)c2ccc(C(F)(F)F)cc2n1-c1ccccc1` [Example 164] has an IC50 of less than 0.2 µM. With `O=c1nc(NCC(F)F)c2ccc(C(F)(F)F)cc2n1-c1ccccc1Cl` [Example 100, 1-(2-chlorophenyl)-4-[(2,2-difluoro-ethyl)amino]-7-(trifluoromethyl)hy-droquinazolin-2-one] the IC50 was less than 0.2 µM. In the case of `Cc1ccccc1-n1c(=O)nc(N)c2ccc(C(F)(F)F)cc21` [Example 125, 4-amino-1-(2-methylphenyl)-7-(trifluoromethyl)hydroquinazolin-2-one], the IC50 is reported as less than 0.2 µM. For `Cc1ccccc1-n1c(=O)nc(NCC(F)F)c2ccc(C(F)(F)F)cc21` [Example 127, 4-[(2,2-difluoroethyl)amino]-1-(2-methylphenyl)-7-(trifluoromethyl)hydro-quinazolin-2-one], the IC50 was less than 0.2 µM. Work on `CCOC(=O)c1ccc2c(=O)[nH]c(=O)n(-c3ccccc3)c2c1` [Example 213, ethyl 2,4-dioxo-1-phenyl-1,3-dihydro-quinazoline-7-carboxylate] yielded an IC50 of 1 to 10 µM. Compound `CN(C)c1nc(=O)n(-c2ccc3[nH]cnc3c2)c2cc(Cl)ccc12` [Example 306, 1-benzimidazol-5-yl-4-(dimethylamino)-7-chlorohydroquinazolin-2-one] has an IC50 of less than 0.2 µM. `C#Cc1ccc2c(NC)nc(=O)n(-c3ccccc3)c2c1` [Example 394, 7-ethynyl-4-(methylamino)-1-phenyl-hydroquinazolin-2-one] was tested, and the IC50 was less than 0.2 µM. `N#Cc1cccc(-n2c(=O)nc(N)c3ccc(C(F)(F)F)nc32)c1` [Example 168, 3-(4-amino-2-oxo-7-(trifluoromethyl)-pyrido[2,3-d]pyrimidin-1(2H)-yl)-benzonitrile] gave an IC50 of less than 0.2 µM. `N#Cc1cccc(-n2c(=O)nc(N3CC[C@@H](O)C3)c3ccc(C(F)(F)F)cc32)c1` [Example 141] showed an IC50 of less than 0.2 µM. With `COC(=O)C1CN(c2nc(=O)n(-c3ccccc3)c3cc(Cl)ccc23)C1` [Example 199, methyl 1-(7-chloro-2-oxo-1-phenyl-1,2-dihydroquinazolin-4-yl)azetidine-3-carboxylate] the IC50 was less than 0.2 µM. `NC(=O)CNc1nc(=O)n(-c2ccccc2Cl)c2nc(C(F)(F)F)ccc12` [Example 287, 2-((1-(2-chlorophenyl)-2-oxo-7-(trifluoromethyl)-1,2-dihydropyrido[2,3-d]pyrimidin-4-yl)amino)acetamide] showed an IC50 of less than 0.2 µM. In the case of `Nc1nc(=O)n(-c2ccccc2)c2cc(Br)ccc12` [Example 163, 4-amino-7-bromo-1-phenylhydro-quinazolin-2-one], the IC50 is reported as less than 0.2 µM. For `CC1(C)[C@H](O)C[C@@H]1Nc1nc(=O)n(-c2ccccc2Cl)c2nc(C(F)(F)F)ccc12` (relative stereo) [Example 276, 4-[((cis)-3-hydroxy-2,2-dimethylcyclo-butyl)amino]-1-(2-chlorophenyl)-7-(trifluoromethyl)-pyrido[2,3-d]-pyrimidin-2(1H)-one], the IC50 was 1 to 10 µM. For `CC1(Nc2nc(=O)n(-c3ccccc3Cl)c3nc(C(F)(F)F)ccc23)CCC1` [Example 319], the IC50 was less than 0.2 µM.

Same assay, conditions: L-methionine 500 uM, ATP 500 uM, numeric bound
`CNc1nc(=O)n(-c2ccccc2)c2cc(Cl)cc(OC3CNC3)c12` [Example 85, 5-azetidin-3-yloxy-7-chloro-4-(methyl-amino)-1-phenylhydroquinazolin-2-one] was tested, and the IC50 was greater than 10 µM. `O=c1[nH]c(=O)n(-c2cccc(C(F)F)c2)c2cc(Cl)ccc12` [Example 354, 7-chloro-1-(3-difluoromethylphenyl)-quinazoline-2,4(1H,3H)-dione] gave an IC50 greater than 10 µM. For `O=C(O)[C@H]1CCCN1c1nc(=O)n(-c2ccccc2)c2cc(Cl)ccc12` [Example 224, (2R)-1-(7-chloro-2-oxo-1-phenylhydro-quinazolin-4-yl)pyrrolidine-2-carboxylic acid], the IC50 was greater than 10 µM. Compound `CCC(C)c1ccc2c(NC)nc(=O)n(-c3ccccc3)c2c1` (stereo not drawn) [Example 382, 4-(methylamino)-7-(methylpropyl)-1-phenylhydroquinazolin-2-one] has an IC50 greater than 10 µM. Work on `O=C(O)[C@@H]1CCCN1c1nc(=O)n(-c2ccccc2)c2cc(Cl)ccc12` [Example 195, (2S)-1-(7-chloro-2-oxo-1-phenylhydro-quinazolin-4-yl)pyrrolidine-2-carboxylic acid] yielded an IC50 greater than 10 µM. Compound `Cc1ccccc1-n1c(=O)[nH]c(=O)c2ccc(C3CC3)cc21` [Example 375, 7-cyclopropyl-1-(o-tolyl)quinazoline-2,4(1H,3H)-dione] has an IC50 greater than 10 µM. With `O=c1[nH]c(=O)n(-c2ccccc2Cl)c2c(Cl)c(C(F)(F)F)ccc12` [Example 360, 8-chloro-1-(2-chlorophenyl)-7-(trifluoro-methyl)pyrido[2,3-d]pyrimidine-2,4(1H,3H)-dione-1] the IC50 was greater than 10 µM. `O=c1[nH]c(=O)n(-c2ccc(O)cc2)c2cc(Cl)ccc12` [Example 229, 7-chloro-1-(4-hydroxyphenyl)-1,3-dihydroquinazoline-2,4-dione] gave an IC50 greater than 10 µM.
